{"source": "patent US11547735B2", "about": "“Composition for ameliorating psoriasis symptoms containing extract of Thalictrum squarrosum steph” (KOREA INSTITUTE OF SCIENCE AND TECHNOLOGY, priority 2020, dated 2023)", "key": {"[1]": {"test_system": "psoriasis caused by imiquimod", "test": "Epithelial thickness of back skin by H&E staining in imiquimod psoriasis model", "type": "in vivo, Balb/c mice", "conditions": "after treatment for a week, compared to the IMQ group", "text": "(§1) 6-week-old male Balb/c mice (Kangwon Life Science, Korea) were purchased and acclimated for a week, and psoriasis was induced using 5% imiquimod (Donga ST, Korea). FIG. 1 is a schematic experimental scheme of an animal model. Anti-psoriatic efficacy was investigated using a total of 20 animal models including 5 animals per experimental group.\n(§2) In order to determine the effect of the extract of Thalictrum squarrosum steph on psoriasis caused by imiquimod, the experimental animals of Section 2-1 were used. The following four experimental groups were constructed and five animals were randomly assigned to each group:\n(§3) The experiment was conducted by inducing psoriasis with IMQ cream and then performing daily application in the amount shown in FIG. 2 to the experimental group and the DEX group. FIG. 3 is an image showing the treatment group for 7 days compared to the psoriasis-induced model as the animal experimental model.\nAfter treatment for a week, the back skin tissue was removed from each animal, and then a paraffin block was prepared. The paraffin block was cut to 5 μm to prepare a slide sample, and then the change in the thickness of the skin tissue was measured through H&E staining."}, "[2]": {"test_system": "filaggrin, loricrin, keratin 1 and keratin 14", "test": "Biomarkers for epithelial tissue damage in back skin by immunofluorescence", "type": "in vivo, Balb/c mice", "conditions": "after treatment for a week, versus IMQ group", "text": "as §1, §2, §3\nAfter treatment for a week, back skin tissue was removed from each animal and a paraffin block was then prepared. A paraffin block was cut to 5 μm to prepare a slide sample, and then the change in biomarkers for epithelial tissue damage due to psoriasis was measured through immunofluorescence."}}, "data": [{"smiles": "C[C@@H]1C[C@H]2[C@@H]3CCC4=CC(=O)C=C[C@]4(C)[C@@]3(F)[C@@H](O)C[C@]2(C)[C@@]1(O)C(=O)CO", "note": "[DEX, dexamethasone]", "values": [{"measurement": "thickness of the epithelial layer", "setting": "[1]", "value": "decreased thickness"}, {"measurement": "expression level of filaggrin", "setting": "[2]", "value": "increased"}, {"measurement": "expression level of keratin 1", "setting": "[2]", "value": "increased"}, {"measurement": "expression level of keratin 14", "setting": "[2]", "value": "increased"}, {"measurement": "expression level of loricrin", "setting": "[2]", "value": "increased"}]}]}
